Experimental data from patent US10034885B2, “Corneal thickness modulating agent” (KOWA COMPANY, LTD., priority 2014, dated 2018).
Where two headings read alike, the source gives them in different places.

Tests used:
[1] = target: Rho kinase; conditions: according to Non-Patent Document 7; read-out: 50% inhibitory concentration (IC50) for Rho kinase; cited from earlier work
[2] = target: Rho kinase; conditions: disclosed in Patent Document 3; read-out: 50% inhibitory concentration (IC50) for Rho kinase; cited from earlier work
[3] = system: cornea; assay: Change of thickness of cornea in human, long-term eyedrop administration test; format: in vivo
Protocol: In a long-term administration test of Compound B in a subject having ophthalmologic disease, the influence on the cornea was examined (27-34 examples). In other words, in an group administered an eyedrop consisting of 0.4% Compound B twice a day for 52 weeks, the corneal thickness was measured using pachymeter before starting administration (week 0), 2 weeks after starting administration, 4 weeks after starting administration, and every 4 weeks thereafter. Measurement was performed five times, and the mean value calculated from the five measurements was adopted. In the measuring day, the drop was instilled in the eye at 9:00 and measurement was performed at 11:00. Note that at week 28, week 52, and during the follow-up (7-28 days after the last administration day), measurement was performed twice at 9:00 (at week 28 and week 52, it was done before the instillation) and 11:00. The upper part in FIG. 1 represents the result from the right eye, and the lower part in FIG. 1 represents the result from the left eye. The vertical axis represents changing values (μm) from week 0, and the horizontal axis represents the week for administration. At week 28, week 52, and during the follow-up (f/u), the measurement at 9:00 is represented with (0) and the measurement at 11:00 is represented with (2).

[4] = system: rabbit corneal endothelial cell; conditions: reported in Patent Document 1; cited from earlier work

In the case of `CC(N)[C@H]1CC[C@H](C(=O)Nc2ccncc2)CC1` (single isomer, unassigned; (+)) [Compound Y-27632, (+)-trans-4-(1-aminoethyl)-1-(4-pyridylaminocarbonyl)cyclohexane], the IC50 [1] is listed as 110 nM.

For `CC1CNCCCN1S(=O)(=O)c1cccc2cncc(F)c12` (centres unmarked) [Compound A, 1-(4-fluoro-5-isoquinolinesulfonyl)-2-methyl-1,4-homopiperazine], the IC50 [2] is given as 200 nM.

With `C[C@H]1CNCCCN1S(=O)(=O)c1cccc2cncc(F)c12` [Compound B, (S)-(−)-1-(4-fluoro-5-isoquinolinesulfonyl)-2-methyl-1,4-homopiperazine] the “thickness of the cornea during the period for administration” value ([3]; human subjects with ophthalmologic disease, 0.4% eyedrop twice a day for 52 weeks, pachymeter, vs week 0) was “decreased”, the “thickness of the cornea during the continued administration” value ([3]; human, 0.4% eyedrop twice a day for 52 weeks) was “held at a nearly constant value” and the “thickness of the cornea before instillation (0)” value ([3]; human, week 28 and week 52, measured at 9:00 before instillation) was “had a tendency to return to the value before starting administration”. The “thickness of the cornea 2 hours after instillation (2)” value ([3]; human, week 28 and week 52, measured at 11:00) was “decreased”.

For `C[C@@H](N)c1ccc(C(=O)Nc2ccnc3[nH]ccc23)cc1` [Compound Y-33983, (R)—(+)—N-(1H-pyrrolo[2,3-b]pyridin-4-yl)-4-(1-aminoethyl)benzamide], the IC50 [1] is listed as 3.6 nM.

For `O=S(=O)(c1cccc2cnccc12)N1CCCNCC1` [fasudil, 1-(5-isoquinolinesulfonyl)-1,4-homopiperazine], the “adhesive property of a rabbit corneal endothelial cell” value [4] is listed as “enhanced”.
